Laboratory results reported in patent US8513234B2, “HIV integrase inhibitors” (Merck Sharp & Dohme Corp., priority 2008, dated 2013).
Read-outs that look alike come from different tables or passages of the source.

Key:
[1] = test system: virus containing E92Q mutation in the integrase gene; conditions: k = IC50(mutant)/IC50(wild type)
Experimental: (§1) An assay for measuring the inhibition of acute HIV infection with HeLa P4-2 cells in a single cycle infectivity assay was conducted using methods described in Joyce et al., J. Biol. Chem. 2002, 277: 45811, Hazuda et al., Science 2000, 287: 646, and Kimpton et al, J. Virol. 1992, 66: 2232. Proviral plasmids encoding viruses containing specific mutations in the integrase gene (N155H, Q148R, Y143R, E92Q, or G140S/Q148H) were generated by site-directed mutagenesis, and viruses were produced by transfecting 293T cells with the appropriate proviral plasmids.

[2] = test system: virus containing G140S/Q148H mutation in the integrase gene; conditions: k = IC50(mutant)/IC50(wild type)
Experimental: as §1

[3] = test system: virus containing Q148R mutation in the integrase gene; conditions: k = IC50(mutant)/IC50(wild type)
Experimental: as §1

[4] = test system: virus containing N155H mutation in the integrase gene; conditions: k = IC50(mutant)/IC50(wild type)
Experimental: as §1

[5] = test system: virus containing Y143R mutation in the integrase gene; conditions: k = IC50(mutant)/IC50(wild type)
Experimental: as §1

wild type IIIB = experiment: Single cycle infectivity assay in HeLa P4-2 cells, wild type virus; assay type: cell-based, HIV
HIV-1 = experiment: Inhibition of acute HIV-1 infection of T-lymphoid cells (spread assay); assay type: cell-based
Experimental: Assay for Inhibition of HIV-1 Replication
Assays for the inhibition of acute HIV-1 infection of T-lymphoid cells were conducted in accordance with Vacca, J. P. et al, Proc. Natl. Acad. Sci. USA 1994, 91: 4096.

[6] = biological target: T1, recombinant integrase (HIV-1 integrase) (Human immunodeficiency virus type 1 group M subtype B, UniProt P04585); experiment: HIV-1 integrase assay: strand transfer catalyzed by recombinant integrase; assay type: biochemical; conditions: strand transfer activity, read-out: IC50
T1 construct: Assays for the strand transfer activity of integrase were conducted in accordance with WO 02/30930 for recombinant integrase
Experimental: HIV-1 Integrase Assay: Strand Transfer Catalyzed by Recombinant Integrase
Assays for the strand transfer activity of integrase were conducted in accordance with WO 02/30930 for recombinant integrase. […] For example, the compounds prepared in Examples 1 to 5 were tested in the integrase assay and found to have the IC50 values in Table B. (Compounds 6A and 6B were not tested in this assay.)
Further description on conducting the assay using preassembled complexes is found in Wolfe, A. L. et al., J. Virol. 1996, 70: 1424-1432, Hazuda et al., J. Virol. 1997, 71: 7005-7011; Hazuda et al., Drug Design and Discovery 1997, 15: 17-24; and Hazuda et al., Science 2000, 287: 646-650.

[7] = Human immunodeficiency virus 1, IIIB, HeLaP4-2, HeLa P4-2 cells, single cycle infectivity, wild type IIIB, read-out: wild type IIIB IC50

Structure (SMILES) | Number of fold shift in IC50 versus wild type IIIB, E92Q [1] | Number of fold shift in IC50 versus wild type IIIB, G140S/Q148H [2] | Number of fold shift in IC50 versus wild type IIIB, Q148R [3] | Number of fold shift in IC50 versus wild type IIIB, N155H [4] | Number of fold shift in IC50 versus wild type IIIB, Y143R [5] | IC50 (wild type IIIB; [7]) | IC95 (nM) in the presence of 10% FBS (HIV-1) | IC50 [6] | IC50 (wild type IIIB; Human immunodeficiency virus 1, IIIB, HeLaP4-2, read-out: wild type IIIB IC50 (nM)) | IC50 (wild type IIIB; HeLa P4-2 cells, single cycle infectivity, wild type IIIB, read-out: wild type IIIB IC50)
CN(C)C(=O)C(=O)N(C)C1CCCCn2c1nc(C(=O)NCc1ccc(F)cc1)c(O)c2=O (single isomer, unassigned; (-)) [Compound Y, (−)N-(2-{[(4-fluorobenzyl)amino]carbonyl}-3-hydroxy-4-oxo-4,6,7,8,9,10-hexahydropyrimido[1,2-a]azepin-10-yl)-N,N′,N′-trimethylethanediamide, reference compound] | 4 | 406 | 26 | 15 | 1 | 16 nM | – | – | – | –
CO[C@]1(C)CC[C@@H](N(C)C(=O)C(=O)N(C)C)c2nc(C(=O)NCc3ccc(F)c(C)c3)c(O)c(=O)n2C1 [Compound 2A, N-((7R,10R)-2-{[(4-fluoro-3-methylbenzyl)amino]carbonyl}-3-hydroxy-7-methoxy-7-methyl-4-oxo-4,6,7,8,9,10-hexahydropyrimido[1,2-a]azepin-10-yl)-N,N′,N′-trimethylethanediamide] | 1 | 10 | 1 | 2 | 2 | 17 nM | 14 nM | 37 nM | – | –
Cc1cc(CNC(=O)c2nc3n(c(=O)c2O)[C@@H](C)COC[C@H]3N(C)C(=O)C(=O)N(C)C)ccc1F [Compound 4A, N-((6S,10S)-2-{[(4-fluoro-3-methylbenzyl)amino]carbonyl}-3-hydroxy-6-methyl-4-oxo-6,7,9,10-tetrahydro-4H-pyrimido[1,2-d][1,4]oxazepin-10-yl)-N,N′,N′-trimethylethanediamide] | 1 | 12 | 2 | 2 | 2 | 19 nM | 10 nM | 38 nM | – | –
Cc1cc(CNC(=O)c2nc3n(c(=O)c2O)[C@H](C)COC[C@H]3N(C)C(=O)C(=O)N(C)C)ccc1F [Compound 4D, N-((6R,10S)-2-{[(4-fluoro-3-methylbenzyl)amino]carbonyl}-3-hydroxy-6-methyl-4-oxo-6,7,9,10-tetrahydro-4H-pyrimido[1,2-d][1,4]oxazepin-10-yl)-N,N′,N′-trimethylethanediamide] | – | 72 | 9 | 8 | 2 | 20 nM | 6 nM | 36 nM | – | –
CC[C@H]1COC[C@@H](N(C)C(=O)C(=O)N(C)C)c2nc(C(=O)NCc3ccc(F)cc3)c(O)c(=O)n21 [Compound 5A, N-((6S,10S)-6-ethyl-2-{[(4-fluorobenzyl)amino]carbonyl}-3-hydroxy-4-oxo-6,7,9,10-tetrahydro-4-pyrimido[1,2-][1,4]oxazepin-10-yl)-N N′N′-trimethylethanediamide] | 2 | 4 | 1 | 1 | 1 | 28 nM | 12 nM | 46 nM | – | –
CC[C@H]1COC[C@H](N(C)C(=O)C(=O)N(C)C)c2nc(C(=O)NCc3ccc(F)cc3)c(O)c(=O)n21 [Compound 5B] | 1 | 11 | 1 | 3 | 2 | 42 nM | 10 nM | 40 nM | – | –
CC[C@@H]1COC[C@H](N(C)C(=O)C(=O)N(C)C)c2nc(C(=O)NCc3ccc(F)cc3)c(O)c(=O)n21 [Compound 5C, N-((6R,10R)-6-ethyl-2-{[(4-fluorobenzyl)amino]carbonyl}-3-hydroxy-4-oxo-6,7,9,10-tetrahydro-4H-pyrimido[1,2-d][1,4]oxazepin-10-yl)-N N′N′-trimethylethanediamide] | – | 116 | 7 | 7 | 2 | 21 nM | 14 nM | 41 nM | – | –
CC[C@@H]1COC[C@@H](N(C)C(=O)C(=O)N(C)C)c2nc(C(=O)NCc3ccc(F)cc3)c(O)c(=O)n21 [Compound 5D, N-((6R,10S)-6-ethyl-2-{[(4-fluorobenzyl)amino]carbonyl}-3-hydroxy-4-oxo-6,7,9,10-tetrahydro-4H-pyrimido[1,2-d][1,4]oxazepin-10-yl)-N N′ N′-trimethylethanediamide] | – | 18 | 14 | 13 | 1 | 26 nM | 20 nM | 42 nM | – | –
CCN(C(=O)C(=O)N(C)C)[C@@H]1CC[C@H](OC)Cn2c1nc(C(=O)NCc1ccc(F)cc1)c(O)c2=O [Compound 6A, N-ethyl-N-((7S,10R)-2-{[(4-fluorobenzyl)amino]carbonyl}-3-hydroxy-7-methoxy-4-oxo-4,6,7,8,9,10-hexahydropyrimido [1,2-a]azepin-10-yl)-N′,N′-dimethylethanediamide] | 3 | 2 | 1 | 2 | 3 | 16 nM | 12 nM | – | – | –
Cc1nnc(C(=O)NC(C)(C)c2nc(C(=O)NCc3ccc(F)cc3)c(O)c(=O)n2C)o1 [Compound X, raltegravir, reference compound] | 3 | 397 | 22 | 13 | 15 | – | – | – | 52 nM | –
CC1(C)OCCn2c1nc(C(=O)NCc1ccc(F)cc1)c(O)c2=O [Compound Z, N-[(4-fluorophenyl)methyl]-3-hydroxy-9,9-dimethyl-4-oxo-4,6,7,9-tetrahydro-6H-pyrimido[2,1-c][1,4]oxazine-2-carboxamide, reference compound] | 26 | >34 | >34 | 32 | 1 | – | – | – | – | 34 nM
